Source: patent US8354403B2, “Pyrrolidine derived beta 3 adrenergic receptor agonists” (Merck Sharp & Dohme Corp., priority 2009, dated 2013)

Target: T1, human β3 adrenergic receptor (Homo sapiens, UniProt P13945)
T1 construct: expressed in transfected cells; host or cells: Chinese hamster ovary (CHO) cells, stably transfected
Assay: Beta-3 agonist in vitro functional assay: cAMP production (LANCE TR-FRET) in CHO cells stably transfected with the cloned β3 receptor
Format: cell-based
Conditions: Table 11; cAMP, CHO cells; read-out: Human β3 agonist functional activity
In short: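 CHO cells stably expressing the cloned receptor, in HEPES-buffered HBSS with BSA and 0.6 mM IBMX, 6,000 cells/well, exposed to compound for 30 min at RT. cAMP read by LANCE TR-FRET against a cAMP standard curve. Isoproterenol defines maximal stimulation.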

T1 sequence (P13945 whole entry): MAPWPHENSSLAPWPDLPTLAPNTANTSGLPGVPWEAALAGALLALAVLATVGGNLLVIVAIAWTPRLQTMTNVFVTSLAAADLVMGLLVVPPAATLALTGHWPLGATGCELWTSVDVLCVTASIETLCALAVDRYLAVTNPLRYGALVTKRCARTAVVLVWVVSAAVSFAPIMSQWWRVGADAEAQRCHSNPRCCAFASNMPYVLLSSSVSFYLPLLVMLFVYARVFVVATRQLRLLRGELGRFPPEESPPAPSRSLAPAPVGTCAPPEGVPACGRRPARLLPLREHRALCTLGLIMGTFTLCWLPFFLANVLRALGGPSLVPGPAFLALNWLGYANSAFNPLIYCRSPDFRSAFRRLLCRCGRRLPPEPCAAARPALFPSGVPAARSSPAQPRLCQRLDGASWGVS

Row | SMILES | EC50
1 | C[C@H]1CN(C(=O)c2ccc(C[C@@H]3CC[C@H]([C@H](O)c4ccccc4)N3)cc2)CCN1Cc1ccccn1 [Example 528] | 10 to 99.9 nM
2 | C[C@@H]1CN(Cc2ccccn2)CCN1C(=O)c1ccc(C[C@@H]2CC[C@H]([C@H](O)c3ccccc3)N2)cc1 [Example 529] | 100 to 999 nM
3 | C[C@H]1CN(Cc2ccccn2)CCN1C(=O)c1ccc(C[C@@H]2CC[C@H]([C@H](O)c3ccccc3)N2)cc1 [Example 530] | 10 to 99.9 nM
4 | C[C@H]1CN(C(=O)c2ccc(C[C@@H]3CC[C@H]([C@H](O)c4ccccc4)N3)cc2)CCN1Cc1nc2ccccc2o1 [Example 531] | 10 to 99.9 nM
5 | C[C@H]1CN(C(=O)c2ccc(C[C@@H]3CC[C@H]([C@H](O)c4ccccc4)N3)cc2)CCN1Cc1n[nH]c2ccccc12 [Example 532] | 10 to 99.9 nM
6 | C[C@@H]1CN(C(=O)c2ccc(C[C@@H]3CC[C@H]([C@H](O)c4ccccc4)N3)cc2)C[C@H](C)N1Cc1ccccn1 [Example 533] | 100 to 999 nM
7 | O=C(c1ccc(C[C@@H]2CC[C@H]([C@H](O)c3ccccc3)N2)cc1)N1CC2CC1CN2Cc1ccccn1 (some centres unmarked) [Example 534] | 100 to 999 nM
8 | O=C(c1ccc(C[C@@H]2CC[C@H]([C@H](O)c3ccccc3)N2)cc1)N1CC2CCC(C1)N2Cc1ccccn1 [Example 535] | 100 to 999 nM
9 | O=C(c1ccc(C[C@@H]2CC[C@H]([C@H](O)c3ccccc3)N2)cc1)N1CC2CCC1CN2Cc1ccccn1 (some centres unmarked) [Example 536] | 100 to 999 nM
10 | C[C@H](c1ccccn1)N1CC2CC1CN2C(=O)c1ccc(C[C@@H]2CC[C@H]([C@H](O)c3ccccc3)N2)cc1 (some centres unmarked) [Example 537] | 100 to 999 nM
11 | C[C@@H](c1ccccn1)N1CC2CC1CN2C(=O)c1ccc(C[C@@H]2CC[C@H]([C@H](O)c3ccccc3)N2)cc1 (some centres unmarked) [Example 538] | 100 to 999 nM
12 | CC(c1ccccn1)N1C2CCC1CN(C(=O)c1ccc(CC3CCC(C(O)c4ccccc4)N3)cc1)C2 (centres unmarked) [Example 539] | 10 to 99.9 nM
13 | C[C@@H](c1ccccn1)N1C2CCC1CN(C(=O)c1ccc(C[C@@H]3CC[C@H]([C@H](O)c4ccccc4)N3)cc1)C2 [Example 540] | 100 to 999 nM
14 | C[C@H](c1ccccn1)N1CC2CCC1CN2C(=O)c1ccc(C[C@@H]2CC[C@H]([C@H](O)c3ccccc3)N2)cc1 (some centres unmarked) [Example 541] | 100 to 999 nM
15 | CC(c1ccccn1)N1CC2CCC1CN2C(=O)c1ccc(CC2CCC(C(O)c3ccccc3)N2)cc1 (centres unmarked) [Example 542] | 100 to 999 nM
16 | O=C(c1ccc(C[C@@H]2CC[C@H]([C@H](O)c3ccccc3)N2)cc1)N1C2CCC1CN(c1nccs1)C2 [Example 543] | 10 to 99.9 nM
17 | O=C(c1ccc(C[C@@H]2CC[C@H]([C@H](O)c3ccccc3)N2)cc1)N1CC2CC1CN2c1nccs1 (some centres unmarked) [Example 544] | 999 to 3000 nM
18 | O=C1CN(C(=O)c2ccc(C[C@@H]3CC[C@H]([C@H](O)c4ccccc4)N3)cc2)CCN1Cc1ccccn1 [Example 545] | 100 to 999 nM
19 | O=C(c1ccc(C[C@@H]2CC[C@H]([C@H](O)c3ccccc3)N2)cc1)N1CCN(c2ccccn2)C(=O)C1 [Example 546] | 100 to 999 nM
20 | O=C(c1ccc(C[C@@H]2CC[C@H]([C@H](O)c3ccccc3)N2)cc1)N1CCn2cnnc2C1 [Example 548] | 100 to 999 nM
21 | O=C(c1ccc(C[C@@H]2CC[C@H]([C@H](O)c3ccccc3)N2)cc1)N1CCN2C(=O)CCC2C1 (some centres unmarked) [Example 550] | 100 to 999 nM
22 | O=C(c1ccc(C[C@@H]2CC[C@H]([C@H](O)c3ccccc3)N2)cc1)N1CCCN(Cc2ccccn2)CC1 [Example 551] | 10 to 99.9 nM
23 | O=C(c1ccc(C[C@@H]2CC[C@H]([C@H](O)c3ccccc3)N2)cc1)N1CCCN(c2nccn3ccnc23)CC1 [Example 552] | 1 to 9.9 nM

Same assay, conditions: Table 13; human Beta-3 agonist functional activity given as range; read-out: Human β3 agonist functional activities

Row | SMILES | EC50
24 | O=C(c1ccc(C[C@@H]2CC[C@H]([C@H](O)c3ccccc3)N2)c(Br)c1)N1CC2C(C1)C2n1cnnn1 (some centres unmarked) [Example 609] | 1 to 9.9 nM
25 | O=C(c1ccc(C[C@@H]2CC[C@H]([C@H](O)c3ccccc3)N2)c(Br)c1)N1CCC2(CCOC2=O)CC1 [Example 610] | 1 to 9.9 nM

Target: T2, β3AR (Rattus norvegicus, UniProt P26255)
T2 construct: host or cells: live rats (bladder, in vivo)
Assay: not given
Conditions: rats, intravenous administration, cystometric studies; cited from earlier work

T2 sequence (P26255 whole entry): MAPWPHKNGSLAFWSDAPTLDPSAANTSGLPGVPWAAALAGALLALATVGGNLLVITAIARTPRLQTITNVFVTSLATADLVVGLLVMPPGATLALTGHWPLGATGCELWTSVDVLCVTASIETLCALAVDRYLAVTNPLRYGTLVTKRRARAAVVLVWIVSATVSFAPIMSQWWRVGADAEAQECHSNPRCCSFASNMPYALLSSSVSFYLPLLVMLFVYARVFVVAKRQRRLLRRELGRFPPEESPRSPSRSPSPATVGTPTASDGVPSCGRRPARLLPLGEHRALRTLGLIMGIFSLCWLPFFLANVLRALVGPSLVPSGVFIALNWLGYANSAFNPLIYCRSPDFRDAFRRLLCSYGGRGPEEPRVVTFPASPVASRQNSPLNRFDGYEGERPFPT

Row | SMILES | bladder capacity | micturition interval | residual urine volume
26 | C[C@H](Cc1ccc2c(c1)OC(C(=O)[O-])(C(=O)[O-])O2)NC[C@H](O)c1cccc(Cl)c1.[Na+].[Na+] [CL316243] | increases bladder capacity | prolongation of micturition interval | without increasing residual urine volume

Same assay, conditions: rats, intravenous administration; cited from earlier work

Row | SMILES | bladder pressure
27 | C[C@H](Cc1ccc2c(c1)OC(C(=O)[O-])(C(=O)[O-])O2)NC[C@H](O)c1cccc(Cl)c1.[Na+].[Na+] [CL316243] | reduces bladder pressure
